Literature values, collected in patent US7569547B2, “Inhibiting furin with polybasic peptides” (Board of Supervisors of Louisiana State University and …, priority 2001, dated 2009).
No end group written: not given here.

How the values were obtained:
[1] = molecular target: T1, furin (Homo sapiens, UniProt P09958); details: Lu et al. 1993; cited from earlier work
[2] = molecular target: T2, PC7 (Homo sapiens, UniProt Q16549); details: Zhong et al. 1999; read-out: Ki against PC7; cited from earlier work
T2 sequence (Q16549 142-785): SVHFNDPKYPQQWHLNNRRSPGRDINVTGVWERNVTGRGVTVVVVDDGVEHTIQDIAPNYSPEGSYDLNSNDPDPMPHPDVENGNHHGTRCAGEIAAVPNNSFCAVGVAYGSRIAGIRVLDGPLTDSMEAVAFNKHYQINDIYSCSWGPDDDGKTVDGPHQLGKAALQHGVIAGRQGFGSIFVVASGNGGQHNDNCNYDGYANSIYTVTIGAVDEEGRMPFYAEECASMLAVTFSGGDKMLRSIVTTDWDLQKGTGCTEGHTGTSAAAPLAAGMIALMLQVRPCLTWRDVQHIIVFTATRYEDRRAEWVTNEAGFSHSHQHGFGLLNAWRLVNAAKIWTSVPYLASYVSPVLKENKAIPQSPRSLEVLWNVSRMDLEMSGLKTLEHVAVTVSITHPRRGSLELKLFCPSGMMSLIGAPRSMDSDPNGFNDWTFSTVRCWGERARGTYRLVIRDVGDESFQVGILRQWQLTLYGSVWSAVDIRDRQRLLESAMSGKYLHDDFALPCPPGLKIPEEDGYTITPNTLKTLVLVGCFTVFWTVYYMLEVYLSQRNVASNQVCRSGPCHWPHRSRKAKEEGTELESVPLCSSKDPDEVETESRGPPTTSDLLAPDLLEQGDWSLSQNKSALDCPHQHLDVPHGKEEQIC

[3] = molecular target: T1, furin; details: literature; read-out: Ki against furin; cited from earlier work

T1 sequence (P09958 108-794): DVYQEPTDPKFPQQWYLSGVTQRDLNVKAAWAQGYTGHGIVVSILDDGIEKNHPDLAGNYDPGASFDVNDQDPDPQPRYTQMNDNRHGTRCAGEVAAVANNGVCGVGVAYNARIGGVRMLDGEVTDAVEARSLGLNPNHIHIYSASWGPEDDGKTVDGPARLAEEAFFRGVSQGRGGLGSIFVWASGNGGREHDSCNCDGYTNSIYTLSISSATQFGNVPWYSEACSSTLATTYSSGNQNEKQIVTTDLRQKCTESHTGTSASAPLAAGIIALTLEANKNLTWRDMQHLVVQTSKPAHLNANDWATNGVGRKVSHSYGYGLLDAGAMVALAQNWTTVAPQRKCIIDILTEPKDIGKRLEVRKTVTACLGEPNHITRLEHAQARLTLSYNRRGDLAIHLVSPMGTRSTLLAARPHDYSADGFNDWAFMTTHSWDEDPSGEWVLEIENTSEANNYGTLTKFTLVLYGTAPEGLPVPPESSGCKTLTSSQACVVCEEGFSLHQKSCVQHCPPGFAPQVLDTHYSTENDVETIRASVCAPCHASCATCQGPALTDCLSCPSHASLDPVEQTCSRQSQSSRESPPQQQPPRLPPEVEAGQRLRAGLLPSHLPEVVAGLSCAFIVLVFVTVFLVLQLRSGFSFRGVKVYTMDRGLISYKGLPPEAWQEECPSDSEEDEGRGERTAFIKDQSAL

Substance	equilibrium constant [1] [M⁻¹]	Ki [2] [nM]	Ki [3] [nM]
Arg^15-Lys^17-Arg^18 turkey ovomucoid third domain: third domain of turkey ovomucoid engineered (KPACTLE^19→KPRCKRE^19) to increase specificity towards furin (not fully specified; ends and bridges not checked)	1.1e+07	–	–
EQRLLKRAKR	–	6	80
QQVAKRRTKR	–	~500	–
